Earlier results, collected in article PMC5488687 (The Biochemical journal, 2016).
pIC50: −log10 of the molar value. Read-outs that look alike come from different tables or passages of the source.

What was measured:
[1] = tested on: KIFC1
[2] = tested on: cells with amplified centrosomes
[3] = tested on: KIFC1/MT complex
[4] = tested on: neuroblastoma N1E-115 cells
[5] = tested on: neuroblastoma N1E-115 cells; settings: read-out: IC50, cell viability of N1E-115 cells
[6] = tested on: normal human dermal fibroblasts (NHDF); settings: read-out: IC50, cell viability of NHDF cells
[7] = tested on: normal human dermal fibroblasts (NHDF)

For `CCCc1cc(C(=O)N[C@H](Cc2ccc(-c3cccc(OC(F)(F)F)c3)nc2)C(=O)N[C@@H]2CCNC2)sc1C` [AZ82], the pIC50 ([1]; read-out: IC50, MT-stimulated KIFC1 ATPase activity) is given as 6.52, the “multipolar spindle formation and mitotic catastrophe” value [2] is given as “triggered multipolar spindle formation and mitotic catastrophe” and the “binding to KIFC1/MT complex versus KIFC1 or MT alone” value [3] is given as “bound specifically to KIFC1/MT complex but did not interact directly with KIFC1 or MT”.

In the case of `O=C(O)c1cc(I)ccc1NC(=O)[C@H](Cc1ccccc1)NCc1ccccc1` [CW069], the “multipolar spindle formation in N1E-115 cells” value [4] is given as “increased multipolar spindle formation”, the pIC50 [5] is given as 4.07 and the pIC50 ([1]; read-out: IC50, KIFC1 ATPase activity) is given as 4.12. The pIC50 [6] was 3.73 and the “effect on bipolar spindle formation in NHDF” value [7] was “no effects”.
